Measurements from ChEMBL document CHEMBL1147978, “Small molecule inhibitors of a glycoside hydrolase attenuate inducible AmpC-mediated beta-lactam resistance” (J Biol Chem, 2007).
pIC50: −log10 of the molar value. Values after ≈ are worked out from the molar mass of the structure shown.

Experiments:
[1] = molecular target: Protein O-GlcNAcase (Homo sapiens) (UniProt O60502); assay: Inhibition of human family 84 O-GLcNAcase
[2] = Inhibition of bovine family 20 beta-hexosaminidase; design: species or system Bos taurus
[3] = molecular target: T1, Beta-hexosaminidase (Vibrio cholerae serotype O1 (strain ATCC 39315 / El Tor Inaba N16961)) (UniProt Q9KU37); assay: Inhibition of Vibrio cholerae NagZ
T1 sequence (whole entry): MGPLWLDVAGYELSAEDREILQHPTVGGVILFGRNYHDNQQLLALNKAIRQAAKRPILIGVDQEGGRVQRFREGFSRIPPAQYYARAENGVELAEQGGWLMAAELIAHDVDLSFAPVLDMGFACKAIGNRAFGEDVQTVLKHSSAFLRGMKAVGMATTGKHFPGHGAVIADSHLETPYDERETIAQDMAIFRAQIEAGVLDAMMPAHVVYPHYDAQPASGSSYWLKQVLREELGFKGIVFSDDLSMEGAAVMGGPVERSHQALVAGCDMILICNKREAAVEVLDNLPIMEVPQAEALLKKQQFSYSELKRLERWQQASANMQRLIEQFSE

[4] = Ratio of human 84 O-GLcNAcase to Vibrio cholerae NagZ
[5] = organism: Homo sapiens; assay: Inhibition of human family 20 beta-hexosaminidase
[6] = Selectivity for Vibrio cholerae NagZ over human family 20 beta-hexosaminidase
[7] = Selectivity for Vibrio cholerae NagZ over human family 84 O-GLcNAcas
[8] = test system: Escherichia coli; assay: Antimicrobial activity against wild type Escherichia coli transfected with pCF1 by serial dilution method
[9] = test system: Escherichia coli; assay: Antimicrobial activity against ampD deficient Escherichia coli in medium containing EtbuPUG by serial dilution method; format: functional
[10] = test system: Escherichia coli; assay: Antimicrobial activity against wild type Escherichia coli by serial dilution method; format: functional
[11] = test system: Escherichia coli; assay: Antimicrobial activity against ampD deficient Escherichia coli transfected with pCF1 in medium containing EtbuPUG by serial dilution method; format: functional
[12] = test system: Escherichia coli; assay: Antimicrobial activity against ampD deficient Escherichia coli transfected with pCF1 by serial dilution method; format: functional
[13] = test system: Escherichia coli; assay: Antimicrobial activity against wild type EtbuPUG treated Escherichia coli transfected with pCF1 by serial dilution method; format: functional
[14] = test system: Escherichia coli; assay: Antimicrobial activity against wild type Escherichia coli transfected with pCF1 in medium containing EtbuPUG by agar diffusion assay; format: functional
[15] = test system: Escherichia coli; assay: Antimicrobial activity against ampD deficient Escherichia coli by serial dilution method; format: functional
[16] = test system: Escherichia coli; assay: Antimicrobial activity against ampD deficient Escherichia coli transfected with pCF1 in medium containing EtbuPUG by agar diffusion assay; format: functional
[17] = test system: Escherichia coli; assay: Antimicrobial activity against wild type Escherichia coli in medium containing EtbuPUG by serial dilution method; format: functional
[18] = test system: Escherichia coli; assay: Antimicrobial activity against ampD deficient Escherichia coli transfected with pCF1 by agar diffusion assay; format: functional
[19] = test system: Escherichia coli; assay: Antimicrobial activity against wild type Escherichia coli transfected with pCF1 by agar diffusion assay; format: functional

Protein O-GlcNAcase (Homo sapiens), sequence (O60502 whole entry, looked up): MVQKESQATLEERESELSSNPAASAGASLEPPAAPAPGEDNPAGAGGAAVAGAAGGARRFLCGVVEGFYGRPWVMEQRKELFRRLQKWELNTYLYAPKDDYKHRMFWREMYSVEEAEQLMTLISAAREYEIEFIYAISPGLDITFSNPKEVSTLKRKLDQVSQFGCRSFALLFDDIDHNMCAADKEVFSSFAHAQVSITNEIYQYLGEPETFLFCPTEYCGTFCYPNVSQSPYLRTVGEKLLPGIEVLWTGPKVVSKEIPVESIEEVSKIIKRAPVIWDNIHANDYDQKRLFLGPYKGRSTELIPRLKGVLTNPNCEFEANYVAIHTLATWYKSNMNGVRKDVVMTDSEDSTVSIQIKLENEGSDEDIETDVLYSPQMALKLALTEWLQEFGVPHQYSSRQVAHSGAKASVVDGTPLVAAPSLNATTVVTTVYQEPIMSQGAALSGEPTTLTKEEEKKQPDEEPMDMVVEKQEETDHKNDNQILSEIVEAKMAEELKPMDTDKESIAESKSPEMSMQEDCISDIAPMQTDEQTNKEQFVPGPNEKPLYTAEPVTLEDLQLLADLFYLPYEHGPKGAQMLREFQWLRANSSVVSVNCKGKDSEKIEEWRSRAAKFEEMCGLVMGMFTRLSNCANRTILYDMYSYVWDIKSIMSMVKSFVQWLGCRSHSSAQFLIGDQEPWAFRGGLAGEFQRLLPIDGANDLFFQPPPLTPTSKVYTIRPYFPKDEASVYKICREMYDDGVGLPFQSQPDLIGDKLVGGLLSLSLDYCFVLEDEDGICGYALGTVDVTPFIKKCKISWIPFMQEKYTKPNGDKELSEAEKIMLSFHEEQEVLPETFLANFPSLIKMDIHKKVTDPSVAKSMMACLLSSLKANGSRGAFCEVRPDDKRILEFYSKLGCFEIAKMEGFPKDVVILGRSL

Molecule `CC(=O)N[C@H]1c2nc(CC(=O)O)cn2[C@H](CO)[C@@H](O)[C@@H]1O` has a Ki [1] of 0.43 µM, a pIC50 [2] of 8.28 and a Kinact [3] of 15 µM. The Selectivity ratio [4] was 0.03.

For `CC(=O)N[C@H]1/C(=N/O)O[C@H](CO)[C@@H](O)[C@@H]1O`, the Ki [1] was 6.4 µM, the Kinact [3] was 0.22 µM and the Selectivity ratio [4] was 29.

Molecule `CC(=O)N[C@H]1/C(=N/OC(=O)Nc2ccccc2)O[C@H](CO)[C@@H](O)[C@@H]1O` has a Ki [5] of 0.036 µM and a Kinact [3] of 0.048 µM.

For `CC(C)C(=O)N[C@H]1/C(=N/OC(=O)Nc2ccccc2)O[C@H](CO)[C@@H](O)[C@@H]1O`, the Ki [1] was 9 µM, the Ki [5] was 20 µM and the Kinact [3] was 0.51 µM. For the same molecule, the Selectivity ratio [4] was 18.

For `CC(C)CC(=O)N[C@H]1/C(=N/OC(=O)Nc2ccccc2)O[C@H](CO)[C@@H](O)[C@@H]1O`, the Ki [1] was 190 µM, the Ki [5] was greater than 1200 µM and the Kinact [3] was 15 µM. It also gave a Selectivity ratio [4] of 13.

Work on `CCC(=O)N[C@H]1/C(=N/OC(=O)Nc2ccccc2)O[C@H](CO)[C@@H](O)[C@@H]1O` yielded a Ki [1] of 1.2 µM, a Ki [5] of 1.2 µM and a Kinact [3] of 0.16 µM. For the same molecule, the Selectivity ratio [4] was 7.5.

Molecule `CCC(CC)C(=O)N[C@H]1/C(=N/OC(=O)Nc2ccccc2)O[C@H](CO)[C@@H](O)[C@@H]1O` has a Selectivity ratio [6] of 100, a Ki [1] of 337 µM and a Selectivity ratio [7] of 100. For the same molecule, the Ki [5] was greater than 3000 µM, the Kinact [3] was 3.1 µM and the Selectivity ratio [4] was 109.

Molecule `CCCC(=O)N[C@H]1/C(=N/OC(=O)Nc2ccccc2)O[C@H](CO)[C@@H](O)[C@@H]1O` has a Ki [1] of 40 µM, a Ki [5] of 26 µM and a Kinact [3] of 0.26 µM.

With `CCCCC(=O)N[C@H]1/C(=N/OC(=O)Nc2ccccc2)O[C@H](CO)[C@@H](O)[C@@H]1O` the Ki [1] was 40 µM, the Ki [5] was 220 µM and the Kinact [3] was 0.33 µM. For the same molecule, the Selectivity ratio [4] was 121.

For `CCCCCC(=O)N[C@H]1/C(=N/OC(=O)Nc2ccccc2)O[C@H](CO)[C@@H](O)[C@@H]1O`, the Ki [1] was 220 µM, the Ki [5] was greater than 900 µM and the Kinact [3] was 6.5 µM. It also gave a Selectivity ratio [4] of 33.

Molecule `CO/N=C(\C(=O)N[C@@H]1C(=O)N2C(C(=O)O)=C(COC(C)=O)CS[C@H]12)c1csc(N)n1` [CEFOTAXIME] has an MIC [8] of 64 µg/mL (≈ 141 µM), an MIC [9] of less than 2 µg/mL and an MIC [10] of 1 µg/mL (≈ 2.2 µM). It also gave an MIC [11] of 64 µg/mL (≈ 141 µM), an MIC [12] of 128 µg/mL (≈ 281 µM) and an MIC [13] of 16 µg/mL (≈ 35.1 µM). For the same molecule, the “inhibition zone (IZ)” value [14] was 12.9 mm, the MIC [15] was less than 2 µg/mL and the “inhibition zone (IZ)” value [16] was 9 mm. The MIC [17] was 1 µg/mL (≈ 2.2 µM), the “inhibition zone (IZ)” value [18] was 7.1 mm and the “inhibition zone (IZ)” value [19] was 10.3 mm.

Work on `CO[C@@]1(NC(=O)Cc2cccs2)C(=O)N2C(C(=O)O)=C(COC(N)=O)CS[C@@H]21` [CEFOXITIN] yielded an MIC [8] of 64 µg/mL (≈ 150 µM), an MIC [9] of 2 µg/mL (≈ 4.68 µM) and an MIC [10] of 1 µg/mL (≈ 2.34 µM). The MIC [11] was 256 µg/mL (≈ 599 µM), the MIC [12] was 512 µg/mL (≈ 1200 µM) and the MIC [13] was 32 µg/mL (≈ 74.9 µM). The “inhibition zone (IZ)” value [14] was 10.9 mm, the MIC [15] was 2 µg/mL (≈ 4.68 µM) and the “inhibition zone (IZ)” value [16] was 10.8 mm. The MIC [17] was 1 µg/mL (≈ 2.34 µM), the “inhibition zone (IZ)” value [18] was 8.8 mm and the “inhibition zone (IZ)” value [19] was 9.3 mm.

Work on `CC(C)(O/N=C(\C(=O)N[C@@H]1C(=O)N2C(C(=O)[O-])=C(C[n+]3ccccc3)CS[C@H]12)c1csc(N)n1)C(=O)O` [CEFTAZIDIME] yielded an MIC [8] of 64 µg/mL (≈ 117 µM), an MIC [9] of less than 2 µg/mL and an MIC [10] of 1 µg/mL (≈ 1.83 µM). For the same molecule, the MIC [11] was 64 µg/mL (≈ 117 µM), the MIC [12] was 256 µg/mL (≈ 468 µM) and the MIC [13] was 32 µg/mL (≈ 58.5 µM). The MIC [15] was less than 2 µg/mL and the MIC [17] was 1 µg/mL (≈ 1.83 µM).

Molecule `CO/N=C(\C(=O)N[C@@H]1C(=O)N2C(C(=O)O)=C(CSc3nc(=O)c(O)nn3C)CS[C@H]12)c1csc(N)n1` [CEFTRIAXONE] has an MIC [8] of 32 µg/mL (≈ 57.7 µM), an MIC [9] of less than 2 µg/mL and an MIC [10] of less than 1 µg/mL. For the same molecule, the MIC [11] was 32 µg/mL (≈ 57.7 µM), the MIC [12] was 128 µg/mL (≈ 231 µM) and the MIC [13] was 16 µg/mL (≈ 28.9 µM). It also gave an MIC [15] of less than 2 µg/mL and an MIC [17] of less than 1 µg/mL.
